Experimental data taken from patent publication US10655161B2, “Diagnostic and prognostic assays based on circulating tyrosine kinase activity” (Quest Diagnostics Investments Incorporated, priority 2010, dated 2020).

Test system: cTK activity in plasma from a CML patient harboring the T315I mutation
Test: Ex vivo plasma cTK activity assay, plasma from a multidrug-resistant CML patient with T315I mutation
Type: biochemical, human
Conditions: 1-5 μM imatinib (FIG. 2A)
Method: After incubation at 37° C. for 30 min, the PY20-HRP solution was replaced by HRP substrate solution (TMBZ).

Cc1ccc(NC(=O)c2ccc(CN3CCN(C)CC3)cc2)cc1Nc1nccc(-c2cccnc2)n1 [Imatinib, imatinib]
Inhibition of cTK activity: little inhibition
